According to patent US8653305B2, “Compound having S1P receptor binding potency and use thereof” (Ono Pharmaceutical Co., Ltd., priority 2004, dated 2014):

Assays:
EDG-6 = target: T1, EDG-6 (Homo sapiens, UniProt O95977); assay: Inhibitory activity on binding of [^3H]-PhS1P to EDG-6; settings: cell membrane fraction of EDG-6-overexpressing CHO cell; 10 nmol/L [^3H]-PhS1P solution; read-out: IC50 of inhibition of binding of [^3H]-PhS1P to EDG-6
T1 construct: expressed in transfected cells; host or cells: Chinese Hamster Ovary (CHO) cells, membrane fraction
T1 sequence (O95977 1-384): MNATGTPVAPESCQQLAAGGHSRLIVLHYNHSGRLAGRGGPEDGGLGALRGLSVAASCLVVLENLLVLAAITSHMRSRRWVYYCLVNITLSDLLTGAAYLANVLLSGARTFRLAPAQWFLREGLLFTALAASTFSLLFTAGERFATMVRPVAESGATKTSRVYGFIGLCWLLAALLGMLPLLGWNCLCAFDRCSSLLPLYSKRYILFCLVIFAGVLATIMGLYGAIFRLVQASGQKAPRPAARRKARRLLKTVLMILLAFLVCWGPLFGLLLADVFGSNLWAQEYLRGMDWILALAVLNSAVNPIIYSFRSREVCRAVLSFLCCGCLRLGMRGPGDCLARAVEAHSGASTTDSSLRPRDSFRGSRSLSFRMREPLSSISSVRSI
Experimental: Measurement of Inhibitory Activity of the Compound of the Present Invention on Binding of [^3H]-PhS1P to EDG-6
By using cell membrane fraction of an EDG-6-overexpressing Chinese Hamster Ovary (CHO) cell and 1 mg protein/mL of the membrane fraction, reaction was carried out in a 96-well plate. Into each well, 80 μL of a vehicle (DMSO) solution diluted with 2× binding buffer (100 mmol/L Tris pH 7.5, 200 mM NaCl, 30 mM NaF, 1% BSA) or a ligand solution having a twice higher concentration and 40 μL of 10 nmol/L [^3H]-PhS1P (5,5,6,6,-[…] phytosphingosine 1-phosphate: This was prepared in the following manner. A compound (anti-7-tert-butyl (4S)-4-[(1S,2R)-1-(benzyloxy)-2-hydroxyhexadec-3-yn-1-yl]-2,2-dimethyl-1,3-oxazolizine-3-carboxylate) prepared in accordance with a method reported in a document (Tetrahedron Lett., 38(34), 6027-6030 (1997)) was reacted with benzyl bromide in tetrahydrofuran in the presence of potassium hexamethyldisilylamide to thereby protect the hydroxy group of the compound. Then, it was treated in hydrogen chloride/methanol solution to remove an acetonide group. The compound thus obtained was reacted with N,N-diethyl-1,5-dihydro-2,4,3-benzodioxaphosphepin-3-amine in dichloromethane in the presence of tetrazole and then oxidized with m-chloroperbenzoic acid. Then, it was reacted in the presence of ASCA-2 catalyst (manufactured by NE Chemcat, 4.5% palladium-0.5% platinum catalyst carried on active carbon, see, Fine Chemical, Oct. 1, 2002, pages 5 to 14) in methanol under a tritium atmosphere. The obtained compound was treated with a 4 N hydrogen chloride/1,4-dioxane solution in dichloromethane to thereby obtain the desired compound) were added. Further, 40 μl of the membrane fraction solution was added and reacted at room temperature for 60 minutes. […] Then, 50 μl/well of Micro Scint 20 was added and the plate was covered with Top Seal-P. Then the radioactivity was measured with Top Count (Perkin Elmer).

Human EDG-1 = target: T2, Human EDG-1 (Homo sapiens, UniProt P21453); assay: Agonistic activity against EDG by monitoring changes in intracellular calcium ion [Ca^2+]i concentration; format: cell-based; settings: Human EDG-1 overexpressing CHO cells; Fura2-AM; control 100 nM S1P; read-out: EC50 of agonistic activity against EDG-1 (increase ratio of intracellular calcium ion concentration)
T2 construct: expressed in transfected cells; host or cells: CHO cells
Experimental: Evaluation of an Agonistic Activity Against EDG of the Compound of the Present Invention by Monitoring Changes in Intracellular Calcium Ion [Ca^2+]i Concentration
Human EDG-1, EDG-3, EDG-5 or EDG-8 gene overexpressing CHO cells were cultured in Ham's F12 medium (manufactured by GIBCO BRL) containing 10% FBS (fetal bovine serum), penicillin/streptomycin and blasticidin (5 μg/ml). The cultured cells were incubated in a 5 μM Fura2-AM solution (Ham's F12 medium containing 10% of FBS, 20 mM HEPES buffer (pH7.4), and 2.5 mM probenecid) at 37° C. for 60 minutes. After washing once with Hanks solution containing 20 mM HEPES buffer (pH7.4), and 2.5 mM probenecid, the plate was soaked in the same solution until assay. Then, the plate was set on a fluorescent drug screening system (FDSS 6000; Hamamatsu Photonics) and the intracellular calcium ion concentration was measured without stimulation for 30 seconds. A test compound (final concentration: 1 nM to 10 μM, dimethylsulfoxide (DMSO) solution) was added and S1P (final concentration: 100 nM) was added 5 minutes thereafter. Then, the increase in the intracellular calcium ion concentration was measured before and after the addition of S1P at intervals of 3 seconds (excitation wavelength: 340 nm and 380 nm, fluorescence wavelength: 500 nm). […]

T2 sequence (P21453 whole entry): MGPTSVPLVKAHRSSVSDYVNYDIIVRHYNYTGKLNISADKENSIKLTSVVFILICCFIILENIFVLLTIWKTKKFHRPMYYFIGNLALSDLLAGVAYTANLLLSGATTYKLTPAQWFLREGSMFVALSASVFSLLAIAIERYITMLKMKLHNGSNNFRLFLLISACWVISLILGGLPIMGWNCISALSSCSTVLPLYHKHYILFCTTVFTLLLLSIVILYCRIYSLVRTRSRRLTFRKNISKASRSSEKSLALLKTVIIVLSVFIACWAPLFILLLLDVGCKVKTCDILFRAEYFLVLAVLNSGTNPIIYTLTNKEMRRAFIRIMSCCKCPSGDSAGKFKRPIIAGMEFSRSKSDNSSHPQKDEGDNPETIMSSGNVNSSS

Row | IC50 (EDG-6) [nM] | Structure (SMILES) | EC50 (Human EDG-1) [nM]
1 | 98 | COc1cc(CC(C)C)ccc1COc1ccc2c(c1)CCC(CN1CC(CO)C1)=C2C [Example 37-1, [1-({6-[(4-isobutyl-2-methoxybenzyl)oxy]-1-methyl-3,4-dihydro-2-naphthalenyl}methyl)-3-azetidinyl]methanol] | 
2 |  | c1ccc(CCCCOc2ccc3cc(CN4CCCCC4)ccc3c2)cc1 [Example 5, 1-{[6-(4-phenylbutoxy)-2-naphthyl]methyl}piperidine] | 7800
3 | 26 | CCNCC1=C(C)c2ccc(OCC(C)Cc3ccc(F)cc3)cc2CC1 (centres unmarked) [Example 27, N-({6-[3-(4-fluorophenyl)-2-methylpropoxy]-1-methyl-3,4-dihydro-2-naphthalenyl}methyl)ethanamine] | 
4 | 81 | COc1cc(CC(C)C)ccc1COc1ccc2c(c1)CCC(CN1CCN(c3ccccn3)CC1)=C2C [Example 66-24, 1-({6-[(4-isobutyl-2-methoxybenzyl)oxy]-1-methyl-3,4-dihydro-2-naphthalenyl}methyl)-4-(2-pyridinyl)piperazine] | 
5 |  | O=C(NS(=O)(=O)c1ccccc1)C1CN(Cc2ccc3cc(OCCCc4ccccc4)ccc3c2)C1 [Example 6] | 250
